Data: patent publication US9840532B2, “5′-substituted nucleoside compounds” (Eli Lilly and Company, priority 2015, dated 2017)

Key:
A375 (melanoma) cells = assay: Xenograft tumor model, melanoma (A375); assay type: in vivo, mouse; details: 4-day-on and 3-day-off schedule for 26 days, oral gavage
Procedure: The purpose of this assay is to measure in a mouse model of cancer the reduction in tumor volume in response to test compound administration.
Grow A375 (melanoma) cells in DMEM/High glucose (HYCLONE™ cat. # SH30022) with 10% HI FBS (GIBCO® cat. #10082-147). Grow Will-2 (DLBCL) cells in RPMI 1640 with L-glutamine and 20% heat inactivated FBS. Grow Namalwa (Burkitt's lymphoma) cells (ATCC) in RPMI 1640 media supplemented with L-glutamine, 25 mM HEPES (GIBCO® 22400-089), 1 mM sodium pyruvate and 7.5% FBS. Grow Molt 4 cells in RPMI 1640 with L-glutamine, 25 mM HEPES [GIBCO 22400-089], 1 mM sodium pyruvate, and 10% FBS. Harvest cells and inject subcutaneously onto the rear flank of nude mice (A375: 5×10^6 cells/animal, mixed 1:1 with MATRIGEL®; Will-2; 1×10^7 cells/animal; Namalwa: 2×10^6 cells/animal; Molt 4: : 5×10^6 cells/animal, mixed 1:1 with MATRIGEL®). When tumors are established (approximately 200 mm^3, 7-21 days after implant), randomize animals, and group them into control and test groups. Formulate the test compound in 1% HEC/0.25% TWEEN®-80/0.05% Antifoam. Administer test compound and vehicles by oral gavage. Determine tumor response by tumor volume measurement (caliper) performed twice a week during the course of treatment and report as the percent inhibition of tumor volume versus the vehicle control group.

[1] = tested on: PRMT5-mediated retention of exon 6 in the processed MDM4 mRNA in A375 tumor cells; assay: Mouse A375 Xenograft Tumor MDM4 Exon5/6 RNA Splicing Assay; assay type: in vivo; details: A-375, PO given QD or BID, tumors 4 hr after last dose, 4 days of dosing, read-out: dose achieving 50% effect (ED50)
Procedure: The purpose of this assay is to measure the ability of a test compound to inhibit PRMT5-mediated retention of exon 6 in the processed MDM4 mRNA in A375 tumor cells in a mouse tumor xenograft model. This assay represents the effect of a test compound on specific PRMT5-mediated splicing events in tumors in an animal model.
Grow A375 cells in medium (DMEM high glucose/10% Hi FBS) at 37° C. in an incubator (5% CO2) for 18-24 hr. Mix the cells with MATRIGEL® (1:1) and implant the cells (5×10^6/animal) subcutaneously into the rear flank of the mice (female nude mice, Harlan). The implanted tumor cells grow as solid tumors. Measure the tumor volume and body weight twice a week with a caliper. After tumor volume reaches approximately 200-250 mm^3 (about 20 days after implant), randomize the animals, and group them into compound treatment groups. Administer the test compounds (formulated in SWFI with 1% HEC/0.25% TWEEN® 80/0.05% Antifoam) by oral gavage. Test compound doses are in the range of 3 to 100 mg/kg. Sacrifice mice 4 hr after the last dose (4 days of dosing).
Harvest tumor tissues and homogenize as described below. Place tumor samples in a bowl and add 1 mL of liquid N2. Squash the tumor in the bowl. Transfer small pieces of tumor (about 20 mg each) into 2 lysing matrix D tubes (MPBIO cat. #6913-250). Use one tube for RNA processing and the other for protein lysate preparation. For RNA processing, homogenize the tumor tissues in an RNEASY® Mini Kit (QIAGEN-74104) extraction buffer (0.5 mL each) for 30 seconds using a Bio101 FastPrep FP120 homogenizer (setting 6). Total RNA is purified with QUARTZY® RNEASY® Mini Kit −50 (QIAGEN-74104, RNEASY® Mini Handbook, Fourth Edition, June 2012). Check the RNA concentration to ensure OD 260/280 […]≧1.9. For cDNA synthesis use A&B APPLIED BIOSYSTEMS®, High Capacity cDNA Reverse Transcription Kit (cat. #4368813). Use 1 μg total RNA (10 μL) in each RT reaction volume of 20 μL, containing 10×RT Buffer—2.0 μL; 25×dNTP Mix (100 mM)—0.8 μL; 10×RT Random Primers—2.0 μL; MULTISCRIBE™ Reverse Transcriptase—1.0 μL; Nuclease-free H2O—[…]. […]

Row | Structure (SMILES) | percent inhibition of tumor volume versus vehicle (A375 (melanoma) cells; 10 mg/kg QD) | percent inhibition of tumor volume versus vehicle (A375 (melanoma) cells; 15 mg/kg) | ED50 [1]
1 | Nc1ncnc2c1ccn2[C@@H]1O[C@H]([C@H](O)c2ccc(Cl)cc2)[C@@H](O)[C@H]1O [Example 1, (2R,3R,4S,5R)-2-(4-Aminopyrrolo[2,3-d]pyrimidin-7-yl)-5-[(R)-(4-chlorophenyl)-hydroxy-methyl]tetrahydrofuran-3,4-diol] | 64% | 71% | ≤ 30 mg/kg
2 | C[C@@](O)(c1ccc(Cl)cc1)[C@H]1O[C@@H](n2ccc3c(N)ncnc32)[C@H](O)[C@@H]1O [Example 3, (2R,3R,4S,5S)-2-(4-Aminopyrrolo[2,3-d]pyrimidin-7-yl)-5-[(1R)-1-(4-chlorophenyl)-1-hydroxy-ethyl]tetrahydrofuran-3,4-diol] |  |  | ≤ 30 mg/kg
3 | Nc1ncnc2c1ccn2[C@@H]1O[C@H]([C@H](O)c2ccccc2)[C@@H](O)[C@H]1O [Example 2, (2R,3R,4S,5R)-2-(4-Aminopyrrolo[2,3-d]pyrimidin-7-yl)-5[(R)-hydroxy(phenyl)methyl]tetrahydrofuran-3,4-diol] |  |  | ≤ 30 mg/kg
